Experimental findings from publication PMC9221546, “New Phenylglycinamide Derivatives with Hybrid Structure as Candidates for New Broad-Spectrum Anticonvulsants” (Cells, 2022) are described below.

Read-outs that look alike come from different tables or passages of the source. Where only a bound is given, the exact number is not on record here.

Data set [1] deals with MES-induced seizures in mice. The data set can be described thus: Maximal electroshock seizure (MES) test. The class given is in vivo. The following applies: for responders at 100 mg/kg / ED50: Mus musculus, ip; for responders at 100 mg/kg / protection in MES screening: 100 mg/kg i.p., 0.5 h; for responders at 100 mg/kg: read-out: MES screening: number of mice protected/number of mice tested (converted); for protection in MES screening: four mice; for ED50: mice, pretreatment time 0.5 h, (95% confidence limits). The procedure: (§1) Adult male Albino Swiss mice that weighed between 22 and 26 g were used in the in vivo studies. They were housed under standardized housing conditions in colony cages and had free access to food as well as tap water. The animals were left to adapt under laboratory conditions for 7 days. All procedures involving animals and their care were performed in accordance with the current European Community and Polish legislation on animal experimentation.
(§2) In the initial screening studies, four mice per group were randomly assigned to each experimental group (each mouse was used only once). To evaluate the ED50 or TD50 values, 3–4 groups that consisted of eight animals were injected with various doses of tested compounds. The protective indexes (PIs) for the compounds that were investigated and reference ASDs were calculated by dividing the TD50 value, as determined in the chimney test (or rotarod test), by the respective ED50 value, as determined in the MES, scPTZ, or 6 Hz (32 mA or 44 mA) tests (PI = TD50/ED50). The PIs is a measure of the potential therapeutic window of the tested agent.
(§3) All substances were suspended in Tween 80 (1% aqueous solution) and administered i.p. as a single injection at a dose of 10 mL/kg. On each day of experimentation, fresh solutions were prepared. The results are summarized in Table S1 (screening data) and Table 2 (ED50, TD50, and PI values, see Section 3 Results and Discussion).
(§4) The detailed in vivo procedures are described elsewhere: the maximal electroshock seizure test (MES), the subcutaneous pentylenetetrazole seizure test (scPTZ), the 6 Hz psychomotor seizure model (32 mA and 44 mA), and the chimney test.
(§5) The basic animal seizure models such as the MES, 6 Hz (32 mA or 44 mA), and the scPTZ are still a standard in the discovery and development of new ASDs. In vivo screening approaches enable the identification of compounds with unidentified and potentially novel mechanisms of action besides substances with well-established pharmacodynamics. Bearing in mind the aforementioned facts, compounds 45–66 were initially studied in the MES test and in the 6 Hz seizure model (32 mA) after intraperitoneal (i.p.) administration at a screening dose of 100 mg/kg in mice at a time point of 0.5 h (the screening group consisted of four mice, the results obtained are summarized in Table S1). It should be stressed that the MES test is an experimental model of human tonic–clonic epilepsy as well as partial convulsions with or without secondary generalization, the 6 Hz model (32 mA) corresponds to human focal epilepsy, whereas the scPTZ test relates to human generalized absence or myoclonic seizures.
(§6) We also established the median toxic doses (TD50) in the chimney test 0.5 h post i.p. administration of these compounds. Both the aforementioned parameters enabled the calculation of the protective indexes (PIs).

In data set [2] the test system is 6 Hz (32 mA) seizures in mice. The data set can be described thus: 6 Hz (32 mA) psychomotor seizure model. The format is in vivo. The following applies: Mus musculus, ip; for responders at 100 mg/kg: 100 mg/kg i.p., 0.5 h; for ED50: mice, pretreatment time 0.5 h, (95% confidence limits). How it is done: as §1, §2, §3, §4, §5, §6
In the next data set the target is T1, TRPV1 (VR1) (h) (Homo sapiens, UniProt Q8NER1).
T1 construct: host or cells: CHO
The data set can be described thus: TRPV1 (VR1) (h) antagonist effect functional assay. The format is cell-based. The following applies: human recombinant CHO cells, read-out: % Inhibition of control agonist response, TRPV1 (antagonist effect). How it is done:
Binding/functional studies were carried out commercially in Eurofins Laboratories (Poitiers, France) and Eurofins Panlabs Discovery Services Taiwan, Ltd. (New Taipei City, Taiwan) using testing procedures that were reported previously (for details see Table S2).
Table S2. Radioligand binding and functional assays. […]
Assays were performed commercially in Eurofins Laboratories (Poitiers, France) or Eurofins Panlabs Discovery Services Taiwan, Ltd. (New Taipei City, Taiwan).
Table S3. In vitro TRPV1 channel antagonist activity for compounds 45–66 (concentration of 100 µM). […]
Cmpd % Inhibition of control Cmpd % Inhibition of control agonist responsea agonist responsea
*Source: human recombinant CHO cells. a Results showing activity higher than 50% are considered to represent […]
variability of the sign al around the control level. Assays were performed commercially in Eurofins Laboratories

For data set [3], the system named is scPTZ-induced seizures in mice. The data set is described as follows: Subcutaneous pentylenetetrazole (scPTZ) seizure test. Conditions: 100 mg/kg i.p., 0.5 h. The class given is in vivo. The procedure:
as §1, §2, §3, §4, §5

Setting [4] is: four mice, read-out: protection in 6 Hz (32 mA) screening.
Setting [5] is: read-out: 6 Hz (32 mA) screening: number of mice protected/number of mice tested (converted).

T1 sequence (Q8NER1 whole entry): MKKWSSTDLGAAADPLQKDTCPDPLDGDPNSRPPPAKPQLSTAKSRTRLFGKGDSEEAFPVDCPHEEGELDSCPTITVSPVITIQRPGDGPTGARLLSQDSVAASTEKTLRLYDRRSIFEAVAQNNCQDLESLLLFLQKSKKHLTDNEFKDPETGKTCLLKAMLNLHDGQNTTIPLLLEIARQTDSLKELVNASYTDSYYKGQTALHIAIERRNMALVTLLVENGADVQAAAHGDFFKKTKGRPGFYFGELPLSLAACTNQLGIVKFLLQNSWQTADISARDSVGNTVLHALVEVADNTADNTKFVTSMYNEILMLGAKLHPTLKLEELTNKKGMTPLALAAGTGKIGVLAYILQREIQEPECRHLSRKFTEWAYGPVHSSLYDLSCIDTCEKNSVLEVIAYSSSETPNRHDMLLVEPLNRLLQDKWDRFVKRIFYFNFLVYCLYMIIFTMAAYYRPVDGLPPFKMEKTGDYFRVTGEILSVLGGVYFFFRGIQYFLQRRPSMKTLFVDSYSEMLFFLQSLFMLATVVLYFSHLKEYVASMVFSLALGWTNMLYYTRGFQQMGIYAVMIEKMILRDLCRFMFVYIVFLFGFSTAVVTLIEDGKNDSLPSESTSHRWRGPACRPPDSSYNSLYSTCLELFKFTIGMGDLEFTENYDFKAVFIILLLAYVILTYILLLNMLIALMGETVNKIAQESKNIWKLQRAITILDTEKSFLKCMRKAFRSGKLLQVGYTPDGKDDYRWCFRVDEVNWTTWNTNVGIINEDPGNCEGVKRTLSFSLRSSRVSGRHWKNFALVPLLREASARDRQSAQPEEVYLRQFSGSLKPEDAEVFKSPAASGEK

`CC(=O)NC(C(=O)N1CCN(c2ccc(C(F)(F)F)cc2)CC1)c1ccccc1` (stereo not shown) [Compound 54, N-(2-oxo-1-phenyl-2-(4-(4-(trifluoromethyl)phenyl)piperazin-1-yl)ethyl)acetamide]: the responders at 100 mg/kg in data set [1] is 0%; in data set [2] (setting [4]), 50%; in data set [2] (setting [5]), 50%. The inhibition (commonly the relative decrease from the control value, in per cent) at 100 µM on TRPV1 (VR1) (h) is 128%.

In the case of `CC(=O)NC(C(=O)N1CCN(c2cccc(C(F)(F)F)n2)CC1)c1ccccc1` (stereo not shown) [Compound 66, N-(2-oxo-1-phenyl-2-(4-(6-(trifluoromethyl)pyridine-2-yl)piperazin-1-yl)ethyl)acetamide], the melting point (in general, the temperature of the solid-liquid transition) lay within 151.6 to 152.3 °C. Also, in data set [1], the responders at 100 mg/kg is 0%. The responders at 100 mg/kg in data set [2] (setting [4]) worked out at 50%. Besides, the responders at 100 mg/kg in data set [2] (setting [5]) was 50%. Besides, the inhibition at 100 µM at TRPV1 (VR1) (h) was found to be 3.7%.

For the molecule `CC(=O)NC(C(=O)N1CCN(c2ccccc2Cl)CC1)c1ccccc1` (stereo not shown) [Compound 46, N-(2-(4-(2-chlorophenyl)piperazin-1-yl)-2-oxo-1-phenylethyl)acetamide], the figures for the responders at 100 mg/kg in data set [1], in data set [2] (setting [4]) and in data set [2] (setting [5]) were 0%, 50% and 50%, respectively. The inhibition at 100 µM at TRPV1 (VR1) (h) was determined as 116%.

As to `CC(=O)NC(C(=O)N1CCN(c2cc(Cl)cc(C(F)(F)F)c2)CC1)c1ccccc1` (stereo not shown) [Compound 51, N-(2-(4-(3-chloro-5-(trifluoromethyl)phenyl)piperazin-1-yl)-2-oxo-1-phenylethyl) acetamide], the responders at 100 mg/kg in data set [1] was 0%; in data set [2] (setting [5]), 25%. On TRPV1 (VR1) (h), the inhibition at 100 µM was -2.5%.

Take `CC(=O)NC(C(=O)N1CCN(c2ccc(C(F)(F)F)cn2)CC1)c1ccccc1` (stereo not shown) [Compound 65, N-(2-oxo-1-phenyl-2-(4-(5-(trifluoromethyl)pyridine-2-yl)piperazin-1-yl)ethyl)acetamide]: the melting point was 91.2 to 92.4 °C. For the same molecule, in data set [1], the “protection in MES screening” value stood at 75%, the responders at 100 mg/kg was 75% and the ED50 (commonly the midpoint of the dose-response relation) was > 100 mg/kg. Besides, the responders at 100 mg/kg in data set [2] (setting [4]) was 75%. In data set [2] (setting [5]), the responders at 100 mg/kg is 75%. Further, the ED50 in data set [2] was 64.9 mg/kg. Moreover, the “scPTZ screening: number of mice protected/number of mice tested” value in data set [3] is 0/4. On TRPV1 (VR1) (h), the inhibition at 100 µM worked out at 8.5%.

Take `CC(=O)NC(C(=O)N1CCN(c2cccc(C)c2)CC1)c1ccccc1` (stereo not shown) [Compound 56, N-(2-oxo-1-phenyl-2-(4-(m-tolyl)piperazin-1-yl)ethyl)acetamide]: the responders at 100 mg/kg in data set [1] is 0%; in data set [2] (setting [5]) it was 25%. For the same molecule, the inhibition at 100 µM at TRPV1 (VR1) (h) amounted to 57.4%.

For the molecule `CC(=O)NC(C(=O)N1CCN(c2cc(C(F)(F)F)ccn2)CC1)c1ccccc1` (stereo not shown) [Compound 64, N-(2-oxo-1-phenyl-2-(4-(4-(trifluoromethyl)pyridine-2-yl)piperazin-1-yl)ethyl)acetamide], the melting point is 91.4 to 92.3 °C. Moreover, the responders at 100 mg/kg in data set [1] was 0%. In addition, in data set [2] (setting [5]), the responders at 100 mg/kg was 25%. On TRPV1 (VR1) (h), the inhibition at 100 µM turned out to be 39.7%.

Take `COc1cccc(N2CCN(C(=O)C(NC(C)=O)c3ccccc3)CC2)c1` (stereo not shown) [Compound 59, N-(2-(4-(3-methoxyphenyl)piperazin-1-yl)-2-oxo-1-phenylethyl)acetamide]: the responders at 100 mg/kg in data set [1] was 0%. For the same molecule, the inhibition at 100 µM at TRPV1 (VR1) (h) stood at 20.1%.

With `CC(=O)NC(C(=O)N1CCN(c2ccc(Cl)c(Cl)c2)CC1)c1ccccc1` (stereo not shown) [Compound 49, N-(2-(4-(3,4-dichlorophenyl)piperazin-1-yl)-2-oxo-1-phenylethyl)acetamide], the figures for the responders at 100 mg/kg in data set [1] and in data set [2] (setting [5]) were 0% and 25%, respectively. The inhibition at 100 µM on TRPV1 (VR1) (h) worked out at 135%.

With `CC(=O)NC(C(=O)N1CCN(c2ncccc2C(F)(F)F)CC1)c1ccccc1` (stereo not shown) [Compound 63, N-(2-oxo-1-phenyl-2-(4-(3-(trifluoromethyl)pyridine-2-yl)piperazin-1-yl)ethyl)acetamide], the melting point is 147.8 to 148.9 °C. For the same molecule, the responders at 100 mg/kg in data set [1] was 0%. For the same molecule, the inhibition at 100 µM on TRPV1 (VR1) (h) was -2.8%.

`CC(=O)NC(C(=O)N1CCN(c2cc(Cl)cc(Cl)c2)CC1)c1ccccc1` (stereo not shown) [Compound 50, N-(2-(4-(3,5-dichlorophenyl)piperazin-1-yl)-2-oxo-1-phenylethyl)acetamide] yielded a melting point of 185.9 to 187.3 °C. For the same molecule, the responders at 100 mg/kg in data set [1] was 0%. Moreover, the responders at 100 mg/kg in data set [2] (setting [5]) is 25%. Moreover, the inhibition at 100 µM at TRPV1 (VR1) (h) turned out to be 128%.

Take `CC(=O)NC(C(=O)N1CCN(c2ccccc2C(F)(F)F)CC1)c1ccccc1` (stereo not shown) [Compound 52, N-(2-oxo-1-phenyl-2-(4-(2-(trifluoromethyl)phenyl)piperazin-1-yl)ethyl)acetamide]: the responders at 100 mg/kg is 0% in data set [1], 50% in data set [2] (setting [4]) and 50% in data set [2] (setting [5]). Moreover, the inhibition at 100 µM on TRPV1 (VR1) (h) was 90.9%.

Regarding `CC(=O)NC(C(=O)N1CCN(c2cc(C(F)(F)F)cc(C(F)(F)F)c2)CC1)c1ccccc1` (stereo not shown) [Compound 55, N-(2-(4-(3,5-bis(trifluoromethyl)phenyl)piperazin-1-yl)-2-oxo-1-phenylethyl)acetamide], the melting point was 194.2 to 195.4 °C. Besides, the responders at 100 mg/kg in data set [1] was 0%. In addition, the responders at 100 mg/kg in data set [2] (setting [5]) is 25%. Also, the inhibition at 100 µM at TRPV1 (VR1) (h) is -14%.

For `CC(=O)NC(C(=O)N1CCN(c2cccc(C(F)F)c2)CC1)c1ccccc1` (stereo not shown) [Compound 57, N-(2-(4-(3-(difluoromethyl)phenyl)piperazin-1-yl)-2-oxo-1-phenylethyl)acetamide], the responders at 100 mg/kg in data set [1] was 0%; in data set [2] (setting [5]) it was 25%. At TRPV1 (VR1) (h), the inhibition at 100 µM came to 43.7%.

As for `CC(=O)NC(C(=O)N1CCN(c2ccc(Cl)cc2)CC1)c1ccccc1` (stereo not shown) [Compound 48, N-(2-(4-(4-chlorophenyl)piperazin-1-yl)-2-oxo-1-phenylethyl)acetamide], the melting point fell in the range of 133.3 to 134.6 °C. Besides, in data set [1], the “protection in MES screening” value was 25%, the responders at 100 mg/kg is 25% and the ED50 was > 150 mg/kg. The responders at 100 mg/kg in data set [2] (setting [4]) was 75%. For the same molecule, the responders at 100 mg/kg in data set [2] (setting [5]) was 75%. Further, the ED50 in data set [2] is 60.1 mg/kg. Besides, on TRPV1 (VR1) (h), the inhibition at 100 µM came to 127%.

In the case of `CC(=O)NC(C(=O)N1CCN(c2cccc(Oc3ccccc3)c2)CC1)c1ccccc1` (stereo not shown) [Compound 61, N-(2-oxo-2-(4-(3-phenoxyphenyl)piperazin-1-yl)-1-phenylethyl)acetamide], the responders at 100 mg/kg was 0% in data set [1] and 25% in data set [2] (setting [5]). In addition, on TRPV1 (VR1) (h), the inhibition at 100 µM is 52.5%.

For `CC(=O)NC(C(=O)N1CCN(c2cccc(-c3ccccc3)c2)CC1)c1ccccc1` (stereo not shown) [Compound 58, N-(2-(4-([1,1’-biphenyl]-3-yl)piperazin-1-yl)-2-oxo-1-phenylethyl)acetamide], the responders at 100 mg/kg in data set [1] is 0%; in data set [2] (setting [4]), 50%; in data set [2] (setting [5]) it was 50%. The inhibition at 100 µM on TRPV1 (VR1) (h) was determined as 92%.
